Values quoted from earlier work in patent US20060193908A1, “Extended release formulations of poorly soluble antibiotics” (priority 2004, published 2006).

Settings: USP 27/NF 22 listing

solubility in water (USP descriptive term): practically insoluble in water
SMILES: CC[C@H]1OC(=O)[C@H](C)[C@@H](O[C@H]2C[C@@](C)(OC)[C@@H](O)[C@H](C)O2)[C@H](C)[C@@H](O[C@@H]2O[C@H](C)C[C@H](N(C)C)[C@H]2O)[C@](C)(OC)C[C@@H](C)C(=O)[C@H](C)[C@@H](O)[C@]1(C)O [clarithromycin, Clarithromycin]
